Values after ≈ are worked out from the molar mass of the structure shown. Some results are limits rather than exact numbers.

Holding throughout (type): functional
The subject of experiment [1] is Staphylococcus aureus. The experiment can be described thus: Potency index, ratio of CPFX MIC to compound MIC for Staphylococcus aureus 1199.
In experiment [2] the test system is Staphylococcus aureus. The experiment can be described thus: Potency index, ratio of CPFX MIC to compound MIC for Staphylococcus aureus 1199-3.
Experiment [3] relates to Staphylococcus aureus. The experiment can be described thus: Potency index, ratio of CPFX MIC to compound MIC for Staphylococcus aureus 1199B.
The test system of experiment [4] is Staphylococcus aureus. Kind of experiment: Antibacterial activity against Staphylococcus aureus.
For experiment [5], the system named is Staphylococcus aureus. Kind of experiment: Antibacterial activity against Staphylococcus aureus ATCC 6538P after 18 hrs by agar dilution assay. In general terms: Agar dilution tests growth on a series of plates holding different concentrations.
Experiment [6] relates to Staphylococcus epidermidis. The experiment can be described thus: Antibacterial activity against Staphylococcus epidermidis after 18 hrs by agar dilution assay.
The test system of experiment [7] is Staphylococcus aureus. The experiment can be described thus: Potency index, ratio of CPFX MIC to compound MIC for Staphylococcus aureus ATCC 6538P.
Experiment [8] concerns Staphylococcus aureus. The experiment can be described thus: Potency index, ratio of NRFX MIC to compound MIC for Staphylococcus aureus ATCC 6538P.
Experiment [9] has as its system Staphylococcus aureus. The experiment can be described thus: Potency index, ratio of enoxacin MIC to compound MIC for Staphylococcus aureus ATCC 6538P.
Experiment [10] concerns Staphylococcus epidermidis. The experiment can be described thus: Potency index, ratio of CPFX MIC to compound MIC for Staphylococcus epidermidis.
In experiment [11] the test system is Staphylococcus epidermidis. Kind of experiment: Potency index, ratio of NRFX MIC to compound MIC for Staphylococcus epidermidis.
Experiment [12] relates to Staphylococcus epidermidis. The experiment can be described thus: Potency index, ratio of enoxacin MIC to compound MIC for Staphylococcus epidermidis.
Experiment [13] concerns Staphylococcus aureus. The experiment can be described thus: Antibacterial activity against Staphylococcus aureus 1199.
The test system of experiment [14] is Staphylococcus aureus. Kind of experiment: Antibacterial activity against Staphylococcus aureus 1199-3.
For experiment [15], the system named is Staphylococcus aureus. Kind of experiment: Antibacterial activity against Staphylococcus aureus 1199B.
For experiment [16], the system named is Staphylococcus aureus. Kind of experiment: Antibacterial activity against methicillin-resistant Staphylococcus aureus 494.
The test system of experiment [17] is Staphylococcus aureus. Kind of experiment: Antibacterial activity against vancomycin-resistant Staphylococcus aureus GISA 992.
Experiment [18] relates to Staphylococcus aureus. Kind of experiment: Selectivity ratio of MIC for Staphylococcus aureus 209P JC1 to MIC for methicillin-resistant Staphylococcus aureus.
Experiment [19] can be described thus: Selectivity ratio of MIC for Micrococcus luteus ATCC 9341 to MIC for methicillin-resistant Staphylococcus aureus.
The subject of experiment [20] is Staphylococcus aureus. Kind of experiment: Potency index, ratio of NRFX MIC to compound MIC for Staphylococcus aureus.
The subject of experiment [21] is Staphylococcus aureus. The experiment can be described thus: Potency index, ratio of GTFX MIC to compound MIC for Staphylococcus aureus.
Experiment [22] concerns Staphylococcus aureus. Kind of experiment: Potency index, ratio of LMFX MIC to compound MIC for Staphylococcus aureus.
The test system of experiment [23] is Staphylococcus aureus. The experiment can be described thus: Potency index, ratio of CPFX MIC to compound MIC for Staphylococcus aureus.

For `CCn1cc(C(=O)O)c(=O)c2cnc(N3CCN(Cc4ccc(CN5CCN(c6cc7c(cc6F)c(=O)c(C(=O)O)cn7C6CC6)CC5)cc4)CC3)nc21`, the Ratio in the experiment on Staphylococcus aureus [1], in the experiment with Staphylococcus aureus [2] and in the experiment on Staphylococcus aureus [3] was over 4 throughout.

`CCn1cc(C(=O)O)c(=O)c2cc(F)c(N3CCNCC3)cc21` [NORFLOXACIN]: the MIC in the experiment on Staphylococcus aureus [4] was in the range of 0.02 to 39.06 µg/mL; in the experiment with Staphylococcus aureus [5], 0.25 to 1 µg/mL (≈ 0.783 to 3.13 µM); in experiment [6] it was 0.25 to 1 µg/mL (≈ 0.783 to 3.13 µM).

For `Cn1c([N+](=O)[O-])cnc1-c1nnc(N2CCN(c3cc4c(cc3F)c(=O)c(C(=O)O)cn4C3CC3)CC2)s1`, the MIC (in the experiment on Staphylococcus aureus [5]; in [6]) was 0.008 µg/mL (≈ 0.0148 µM) each time. Further, the Ratio (in the experiment with Staphylococcus aureus [7]; in the experiment with Staphylococcus aureus [8]; with Staphylococcus aureus [9]; in experiment [10]; in [11]; in [12]) was 32 - 128 in each case.

As for `COc1c(N2CCNC(C)C2)c(F)cc2c(=O)c(C(=O)O)cn(C3CC3)c12` (stereo unspecified) [GATIFLOXACIN], the MIC in the experiment with Staphylococcus aureus [4] was 0.02 to 39.06 µg/mL.

Consider `CCn1cc(C(=O)O)c(=O)c2cc(F)c(N3CCNC(C)C3)c(F)c21` (stereo unspecified) [LOMEFLOXACIN], for which, in the experiment on Staphylococcus aureus [4], the MIC was 0.02 to 39.06 µg/mL.

For `O=C(O)c1cn(C2CC2)c2cc(N3CCNCC3)c(F)cc2c1=O` [CIPROFLOXACIN], the MIC against Staphylococcus aureus [4] fell in the range of 0.02 to 39.06 µg/mL; against Staphylococcus aureus [13] it was 0.125 to 32 µg/mL (≈ 0.377 to 96.6 µM); in the experiment with Staphylococcus aureus [14], 0.125 to 32 µg/mL (≈ 0.377 to 96.6 µM); in the experiment with Staphylococcus aureus [15], 0.125 to 32 µg/mL (≈ 0.377 to 96.6 µM); against Staphylococcus aureus [16], 0.125 to 32 µg/mL (≈ 0.377 to 96.6 µM); against Staphylococcus aureus [17], 0.125 to 32 µg/mL (≈ 0.377 to 96.6 µM). Further, the MIC (with Staphylococcus aureus [5]; in experiment [6]) was 0.25 to 1 µg/mL (≈ 0.754 to 3.02 µM) each time.

With `C=c1sc2c(C(=O)O)c(=O)c3cc(F)c(-c4ccc(N)cc4)cc3n12`, the results for the Ratio result (in the experiment on Staphylococcus aureus [18]; in experiment [19]) were “>=16” and over 16, respectively.

As for `CCn1cc(C(=O)O)c(=O)c2cc(F)c(N3CCN(CN4C(=O)/C(=N\c5ncc(Cc6cc(OC)c(OC)c(OC)c6)c(N)n5)c5cc(F)ccc54)C(C)C3)c(F)c21` (stereo unspecified), the Ratio in the experiment with Staphylococcus aureus [20], in the experiment on Staphylococcus aureus [21], in the experiment with Staphylococcus aureus [22] and in the experiment with Staphylococcus aureus [23] was 2 - 4111 in each case. Moreover, the MIC with Staphylococcus aureus [4] (Staphylococcus aureus, read-out: MIC) came to 0.0095 µg/mL (≈ 0.0119 µM).

By MIC is commonly meant the least concentration at which growth counts as inhibited.

The values above are taken from ChEMBL document CHEMBL4251589, “4-Quinolone derivatives and their activities against Gram positive pathogens” (2018).
